The source of these data is patent publication US20240368168A1, “SARM1 ENZYME ACTIVITY INHIBITOR AND APPLICATION THEREOF” (ARTIVILA BIOPHARMA, priority 2021, published 2024).

In test [1] the target is T1, dN-SARM1 protein (Homo sapiens, UniProt Q6SZW1).
T1 construct: the N-terminal mitochondrial localization signal peptide of SARM1 was removed
T1 sequence (Q6SZW1 28-724): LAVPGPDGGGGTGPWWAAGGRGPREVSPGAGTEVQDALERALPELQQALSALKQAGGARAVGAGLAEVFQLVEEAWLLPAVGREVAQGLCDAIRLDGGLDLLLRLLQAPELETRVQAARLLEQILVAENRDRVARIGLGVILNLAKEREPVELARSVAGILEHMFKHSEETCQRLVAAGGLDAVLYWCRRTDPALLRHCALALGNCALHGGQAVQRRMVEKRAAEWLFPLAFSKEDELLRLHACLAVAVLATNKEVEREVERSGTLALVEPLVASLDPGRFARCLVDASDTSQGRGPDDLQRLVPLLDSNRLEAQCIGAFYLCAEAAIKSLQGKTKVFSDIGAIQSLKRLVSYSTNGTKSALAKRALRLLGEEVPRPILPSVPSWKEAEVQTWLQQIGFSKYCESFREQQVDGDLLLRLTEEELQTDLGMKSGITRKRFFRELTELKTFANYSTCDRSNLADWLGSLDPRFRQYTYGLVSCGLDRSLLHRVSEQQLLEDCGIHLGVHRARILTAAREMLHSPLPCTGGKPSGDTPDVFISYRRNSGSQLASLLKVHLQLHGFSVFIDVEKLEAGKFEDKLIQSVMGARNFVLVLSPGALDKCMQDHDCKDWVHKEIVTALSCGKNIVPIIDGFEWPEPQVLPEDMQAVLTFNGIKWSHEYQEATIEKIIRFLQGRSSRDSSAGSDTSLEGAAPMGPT
The experiment in a line: In vitro biochemical assay for inhibiting SARM1 enzymatic activity (% inhibition rate), PC6 fluorescence method. Conditions: 20 μM compound; 50 μM NAD, 50 μM PC6, 50 μM NMN activator. The protocol: The compounds were subjected to PC6 fluorescence method measurement [Chinese Patent 202010528147.3] using the dN-SARM1 protein obtained through “(4) Protein extraction” in “Expression and purification of SARM1 protein” in the above biological activity example 1.
First, 0.05 μg/ml dN-SARM1 and 20 μM compound were incubated in 50 mM Tris-HCl (pH 7.5) solution for 10 min, and then added with 50 μM NAD and 50 μM PC6 as substrate and 50 μM NMN as activator for 30 minutes of reaction at room temperature. The concentration of each component was the final concentration in the reaction system.
During the reaction, PC6 fluorescence spectrum dynamics were detected by a microplate reader, wherein the excitation wavelength and emission wavelength for detection were 390 nm and 520 nm, respectively. Finally, the reaction rate was used to express the activity of the protein. The higher the reaction rate, the stronger the activity of the protein and the lower the inhibitory efficiency of the compound.

Test [2] deals with T1, dN-SARM1 protein. Put plainly: In vitro biochemical assay for inhibiting SARM1 enzymatic activity (IC50), PC6 fluorescence method. Conditions: 50 μM NAD, 50 μM PC6, 50 μM NMN activator. Put shortly:
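dN-SARM1 (0.05 μg/ml, 50 mM Tris-HCl pH 7.5) preincubated 10 min at room temperature with compound in serial dilution from 200 μM. Reaction started with final 50 μM NAD, 50 μM PC6 substrate and 50 μM NMN activator, 30 min at room temperature. PC6 fluorescence (ex 390/em 520 nm) rate gives activity; IC50 derived.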

Test [3] addresses T2, SARM1 protein in iSARM1 (HEK293) cells (Homo sapiens, UniProt Q6SZW1).
T2 construct: The full-length SARM1 was synthesized into the pUC57 plasmid by WZ Biosciences Inc., and PCR was performed using pUC57-SARM1 as a DNA template
T2 sequence (Q6SZW1 28-724): T1 sequence (Q6SZW1 28-724)
Put plainly: Inhibitory activity in inducible SARM1 overexpressing cell line, intracellular cADPR level. The test is classed as cell-based. Particulars: activator CZ-48 100 μM, cADPR content. Put shortly:
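Inducible SARM1-overexpressing HEK293 cells preincubated 1.5 h with inhibitor (50 μM final), then activated with 100 μM CZ-48 for 16 h. Intracellular cADPR extracted with perchloric acid, NAD+ removed by NADase, and quantified by cyclase-coupled resazurin cycling assay (Ex/Em 544/599, 30 min kinetics) against cADPR standards; inhibition rate and IC50 calculated.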

On to `CNc1ccc2ncc(Br)n2n1` [Compound 1, 3-bromo-N-methylimidazo[1,2-b]pyridazin-6-amine], for which the inhibition (usually the relative decrease from the control value, in per cent) at 20 µM against dN-SARM1 protein [1] was greater than 90%.

Regarding `Nc1cn2c(-c3ccccc3)cnc2cc1Cl` [Compound 19], the inhibition at 20 µM on dN-SARM1 protein [1] was greater than 90%.

At dN-SARM1 protein [1], `CC(C)(C)OC(=O)Nc1ccc2ncc(-c3ccccc3)n2n1` [Compound 22] displayed an inhibition at 20 µM of 50 to 89%.

With `CCOC(=O)c1ccc2ncc(-c3ccccc3)n2c1` [Compound 24], the inhibition at 20 µM against dN-SARM1 protein [1] was greater than 90%. At dN-SARM1 protein [2], the IC50 (usually the concentration at which inhibition is half-maximal) was 1000 to 10000 nM.

`COc1ccn2c(-c3ccccc3)cnc2c1` [Compound 26] had an inhibition at 20 µM against dN-SARM1 protein [1] greater than 90%. This compound yielded a half-inhibitory concentration (IC50) at dN-SARM1 protein [2] of less than 1000 nM.

For `COc1cccn2c(-c3ccccc3)cnc12` [Compound 27], the inhibition at 20 µM against dN-SARM1 protein [1] lay in the range of 50 to 89%. On dN-SARM1 protein [2], the IC50 was in the range of 1000 to 10000 nM.

`Ic1cccc2ncc(I)n12` [Compound 28] returned an inhibition at 20 µM at dN-SARM1 protein [1] of 50 to 89%.

In the case of `CN1CCN(c2ccc3nccn3c2)CC1` [Compound 35], the inhibition at 20 µM at dN-SARM1 protein [1] lay in the range of 50 to 89%.

For the compound `CN1CCN(c2ccc3ncc(-c4ccccc4)n3c2)CC1` [Compound 37], on dN-SARM1 protein [1], the inhibition at 20 µM is 50 to 89%. Besides, at dN-SARM1 protein [2], the IC50 was in the range of 1000 to 10000 nM.

At dN-SARM1 protein [1], `CN(C(=O)OC(C)(C)C)c1ccc2ncc(-c3ccnc(N)c3)n2c1` [Compound 41] had an inhibition at 20 µM greater than 90%. On dN-SARM1 protein [2], this compound displayed an IC50 of 1000 to 10000 nM.

Regarding `CC(C)(C)OC(=O)Nc1ccc2ncc(-c3cccc(N)c3)n2c1` [Compound 46], at dN-SARM1 protein [1], the inhibition at 20 µM is greater than 90%. The compound further had an IC50 on dN-SARM1 protein [2] of 1000 to 10000 nM.

For the compound `CN1CCC(C(=O)Nc2cccc(-c3cnc4ccc(N(C)C(=O)OC(C)(C)C)cn34)c2)CC1` [Compound 48], on dN-SARM1 protein [1], the inhibition at 20 µM is 50 to 89%.

Consider `COCCOCC(=O)Nc1cccc(-c2cnc3ccc(C)cn23)c1` [Compound 53], for which the inhibition at 20 µM against dN-SARM1 protein [1] is greater than 90%. This compound also returned an IC50 against dN-SARM1 protein [2] of 1000 to 10000 nM.

`Cc1ccc2ncc(-c3cccc(NC(=O)C4CCOCC4)c3)n2c1` [Compound 54] returned an inhibition at 20 µM on dN-SARM1 protein [1] greater than 90%. At dN-SARM1 protein [2], this compound displayed an IC50 of less than 1000 nM.

As to `CC(C)(C)Oc1ccc2ncc(-c3cccc(NC(=O)C4CCOCC4)c3)n2c1` [Compound 55], the inhibition at 20 µM on dN-SARM1 protein [1] was greater than 90%. This compound registered an IC50 at dN-SARM1 protein [2] of 1000 to 10000 nM.

As to `COCCOCC(=O)Nc1cccc(-c2cnc3ccc(N4CCOCC4)cn23)c1` [Compound 56], the inhibition at 20 µM on dN-SARM1 protein [1] is greater than 90%. At dN-SARM1 protein [2], the IC50 is less than 1000 nM.

On to `O=C(Nc1cccc(-c2cnc3ccc(N4CCOCC4)cn23)c1)C1CCOCC1` [Compound 57], for which the inhibition at 20 µM at dN-SARM1 protein [1] was greater than 90%. This compound also gave an IC50 on dN-SARM1 protein [2] of less than 1000 nM.

The compound `COCCOCC(=O)Nc1cccc(-c2cnc3ccc(NC(=O)OC(C)(C)C)cn23)c1` [Compound 58, tert-butyl (3-(3-(2-(2-methoxyethoxy)acetamido)phenyl)imidazo[1,2-a]pyridin-6-yl)carbamate] gave an inhibition at 20 µM against dN-SARM1 protein [1] of 50 to 89%. The IC50 at dN-SARM1 protein [2] was less than 1000 nM.

The compound `CNc1ccc2ncc(-c3cccc(NC(=O)COCCOC)c3)n2c1` [Compound 77] returned an inhibition at 20 µM against dN-SARM1 protein [1] greater than 90%. In addition, the IC50 against dN-SARM1 protein [2] lay within 1000 to 10000 nM.

On to `CN(C)c1ccc2ncc(-c3ccccc3)n2n1` [Compound 94, N,N-dimethyl-3-phenylimidazo[1,2-b]pyridazin-6-amine], for which the inhibition at 20 µM against dN-SARM1 protein [1] was greater than 90%. In addition, the IC50 at dN-SARM1 protein [2] was less than 1000 nM.

Regarding `CN(C(=O)OC(C)(C)C)c1ccc2ncc(-c3ccccc3)n2n1` [Compound 95, tert-butyl methyl(3-phenylimidazo[1,2-b]pyridazin-6-yl) carbamate], on dN-SARM1 protein [1], the inhibition at 20 µM fell in the range of 50 to 89%.

The compound `COCCOCCNS(=O)(=O)c1cccc(-c2cnc3ccc(N(C)C(=O)OC(C)(C)C)cn23)c1` [Compound 108, tert-butyl (3-(3-(N-(2-(2-methoxyethoxy)ethyl)sulfamoyl)phenyl)imidazo[1,2-a]pyridin-6-yl)(methyl)carbamate] came in with an inhibition at 20 µM against dN-SARM1 protein [1] of 50 to 89%. On dN-SARM1 protein [2], this compound registered an IC50 of 1000 to 10000 nM.

With `CNc1ccc2ncc(-c3cccc(S(=O)(=O)NCCOCCOC)c3)n2c1` [Compound 109, N-(2-(2-methoxyethoxy)ethyl)-3-(6-(methylamino)imidazo[1,2-a]pyridin-3-yl)benzenesulfonamide], at dN-SARM1 protein [1], the inhibition at 20 µM is 50 to 89%.

Take `CNc1ccc2ncc(-c3cccc(S(=O)(=O)NC4CCOCC4)c3)n2c1` [Compound 110, 3-(6-(methylamino)imidazo[1,2-a]pyridin-3-yl)-N-(tetrahydro-2H-pyran-4-yl)benzenesulfonamide]: the inhibition at 20 µM on dN-SARM1 protein [1] is greater than 90%. At dN-SARM1 protein [2], the IC50 is less than 1000 nM.

As for `COC(=O)c1csc(-c2cnc3ccc(NC(=O)OC(C)(C)C)cn23)c1` [Compound 124, methyl 5-(6-((tert-butoxycarbonyl)amino)imidazo[1,2-a]pyridin-3-yl)thiophene-3-carboxylate], at dN-SARM1 protein [1], the inhibition at 20 µM is greater than 90%. The compound further returned an IC50 against dN-SARM1 protein [2] of 1000 to 10000 nM.

`CC(C)(C)OC(=O)Nc1ccc2ncc(-c3cc(C(=O)NC4CCOCC4)cs3)n2c1` [Compound 125, tert-butyl (3-(4-((tetrahydro-2H-pyran-4-yl)carbamoyl)thiophen-2-yl)imidazo[1,2-a]pyridin-6-yl) carbamate]: the inhibition at 20 µM against dN-SARM1 protein [1] was greater than 90%. The IC50 against dN-SARM1 protein [2] was 1000 to 10000 nM.

As to `CCOC(=O)c1ccc(-c2cnc3ccc(NC(=O)OC(C)(C)C)cn23)s1` [Compound 126, ethyl 5-(6-((tert-butoxycarbonyl)amino)imidazo[1,2-a]pyridin-3-yl)thiophen-2-carboxylate], at dN-SARM1 protein [1], the inhibition at 20 µM was greater than 90%.

Compound `CC(C)(C)OC(=O)Nc1ccc2ncc(-c3ccc(C(=O)NC4CCOCC4)s3)n2c1` [Compound 127, tert-butyl (3-(5-((tetrahydro-2H-pyran-4-yl)carbamoyl)thiophen-2-yl)imidazo[1,2-a]pyridin-6-yl)carbamate] returned an inhibition at 20 µM at dN-SARM1 protein [1] of 50 to 89%.

Consider `COCCOCC(=O)Nc1cccc(-c2cnc3ccc(N)cn23)c1` [Compound 128, N-(3-(6-aminoimidazo[1,2-a]pyridin-3-yl)phenyl)-2-(2-methoxyethoxy)acetamide], for which, at dN-SARM1 protein [1], the inhibition at 20 µM was greater than 90%. On dN-SARM1 protein [2], the IC50 was 1000 to 10000 nM.

As to `COCCOCCNC(=O)c1cccc(-c2cnc3ccc(N(C)C(=O)OC(C)(C)C)cn23)c1` [Compound 133, tert-butyl (3-(3-((2-(2-methoxyethoxy)ethyl)carbamoyl)phenyl)imidazo[1,2-a]pyridin-6-yl)(methyl)carbamate], the inhibition at 20 µM on dN-SARM1 protein [1] lay within 50 to 89%.

On dN-SARM1 protein [1], `CN(C(=O)OC(C)(C)C)c1ccc2ncc(-c3cccc(C(=O)NC4CCOCC4)c3)n2c1` [Compound 135] showed an inhibition at 20 µM of 50 to 89%.

For the compound `CC(C)(C)OC(=O)Nc1ccc2ncc(C(=O)NCCOCCOCCNC(=O)c3cnc4ccc(NC(=O)OC(C)(C)C)cn34)n2c1` [Compound 139], the inhibition at 20 µM against dN-SARM1 protein [1] was 50 to 89%.

In turn, `CN(C(=O)C(F)(F)F)c1ccc2ncc(NC(=O)COCCOCCOCC(=O)Nc3cnc4ccc(N(C)C(=O)C(F)(F)F)cn34)n2c1` [Compound 142, N,N′-(3,3′-((2,2′-((oxybis(ethane-2,1-diyl))bis(oxy))bis (acetyl))bis(azadialkyl))bis(imidazo[1,2-a]pyridin-6,3-diyl))bis(2,2,2-trifluoro-N-methylacetamide)] yielded an inhibition at 20 µM against dN-SARM1 protein [1] greater than 90%.

Turning to `CN(C(=O)OC(C)(C)C)c1ccc2ncc(-c3cccc(NC(=O)CN4CCOCC4)c3)n2c1` [Compound 147], on dN-SARM1 protein [1], the inhibition at 20 µM was greater than 90%.

On to `CN(C(=O)OC(C)(C)C)c1ccc2ncc(-c3cccc(NC(=O)CN4CCC(O)C4)c3)n2c1` (centres unmarked) [Compound 148], for which the inhibition at 20 µM against dN-SARM1 protein [1] was greater than 90%.

As for `CN(C(=O)C1CC1)c1ccc2ncc(-c3cccc(NC(=O)C4CCOCC4)c3)n2c1` [Compound 307], the 50% inhibitory concentration (IC50) on dN-SARM1 protein [2] is less than 1000 nM. In test [3], the EC50 (in general, the concentration needed to bring the measured effect to its halfway point) was in the range of 1000 to 10000 nM.
